Measurements: patent US11168073B2, “3,3-difluoroallylamines or salts thereof and pharmaceutical compositions comprising the same” (YUHAN CORPORATION, priority 2018, dated 2021)
Structures can show the parent of a compound that is named as a salt. Where two headings read alike, the source gives them in different places.

Assays:
Type in all cases: biochemical
[1] = biological target: T1, recombinant human VAP-1 (Homo sapiens, UniProt Q16853); assay: Activity evaluation on recombinant human VAP-1 (Amplex Red/HRP-coupled hydrogen peroxide assay, benzylamine substrate); conditions: read-out: Inhibitory Activity (IC50, nM) human VAP-1
T1 construct: purchased R&D systems
T1 sequence (Q16853 1-763): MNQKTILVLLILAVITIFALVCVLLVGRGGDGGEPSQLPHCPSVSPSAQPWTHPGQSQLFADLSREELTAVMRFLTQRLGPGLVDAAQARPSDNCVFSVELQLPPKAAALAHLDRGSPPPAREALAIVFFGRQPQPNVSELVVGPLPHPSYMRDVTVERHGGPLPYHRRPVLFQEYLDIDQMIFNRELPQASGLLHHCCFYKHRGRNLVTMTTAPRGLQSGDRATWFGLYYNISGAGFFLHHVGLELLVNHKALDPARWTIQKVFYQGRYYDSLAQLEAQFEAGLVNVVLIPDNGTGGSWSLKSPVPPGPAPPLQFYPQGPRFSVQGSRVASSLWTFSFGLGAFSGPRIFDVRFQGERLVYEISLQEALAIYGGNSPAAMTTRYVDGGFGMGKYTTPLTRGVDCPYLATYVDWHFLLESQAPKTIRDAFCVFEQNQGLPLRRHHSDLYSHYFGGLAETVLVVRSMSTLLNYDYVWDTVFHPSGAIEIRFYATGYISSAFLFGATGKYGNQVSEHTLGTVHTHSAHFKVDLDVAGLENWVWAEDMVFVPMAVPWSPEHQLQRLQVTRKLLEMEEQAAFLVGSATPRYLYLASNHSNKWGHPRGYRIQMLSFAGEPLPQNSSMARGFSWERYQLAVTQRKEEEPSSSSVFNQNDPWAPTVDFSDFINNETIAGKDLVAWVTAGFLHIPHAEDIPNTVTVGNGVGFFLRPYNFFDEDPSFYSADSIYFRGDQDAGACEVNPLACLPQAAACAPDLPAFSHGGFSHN
How it was run: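 Recombinant human VAP-1 in 50 mM sodium phosphate pH 7.4 preincubated 30 min at 37 °C with compound (8-point 1:3 series, <1% DMSO), then 1 mM benzylamine, 200 uM Amplex Red, 1 U/mL HRP added. H2O2-derived resorufin fluorescence (ex 544/em 590) followed 1–2 h; IC50 from four-parameter fit of rate inhibition.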

[2] = biological target: T2, recombinant human MAO-A (monoamine oxidase-A) (Homo sapiens, UniProt P21397); assay: Activity evaluation on recombinant human MAO-A (Amplex Red/HRP-coupled assay, 0.5 mM tyramine substrate); conditions: read-out: Inhibitory Activity (IC50, nM) MAO-A
T2 construct: purchased Sigma-Aldrich
T2 sequence (P21397 1-527): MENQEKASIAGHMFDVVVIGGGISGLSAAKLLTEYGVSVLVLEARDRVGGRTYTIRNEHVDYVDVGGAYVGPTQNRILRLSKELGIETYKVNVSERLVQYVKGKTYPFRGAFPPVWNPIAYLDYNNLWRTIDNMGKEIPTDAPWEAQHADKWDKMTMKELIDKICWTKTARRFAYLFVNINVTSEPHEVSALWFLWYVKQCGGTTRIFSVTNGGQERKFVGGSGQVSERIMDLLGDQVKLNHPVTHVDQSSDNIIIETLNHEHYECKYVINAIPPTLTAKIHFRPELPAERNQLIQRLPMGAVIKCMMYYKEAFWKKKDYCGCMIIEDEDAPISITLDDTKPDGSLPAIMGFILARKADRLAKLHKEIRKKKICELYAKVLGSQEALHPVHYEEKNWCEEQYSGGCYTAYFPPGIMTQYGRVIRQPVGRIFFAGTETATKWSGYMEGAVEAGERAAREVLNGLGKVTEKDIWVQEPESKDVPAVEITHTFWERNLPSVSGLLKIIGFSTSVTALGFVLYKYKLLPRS
How it was run: (§1)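 Compounds preincubated 30 min at 37 °C with enzyme in 50 mM sodium phosphate pH 7.4 (final DMSO <1%, 8-point 1:3 dilutions); reaction started with 200 uM Amplex Red, 1 U/mL HRP and substrate (MAO-A 0.5 mM tyramine, MAO-B 1 mM benzylamine, DAO 1 mM putrescine). Resorufin fluorescence (ex 544/em 590 nm) followed over 1-2 h; IC50 from four-parameter logistic fit.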

[3] = biological target: T3, recombinant human MAO-B (monoamine oxidase-B) (Homo sapiens, UniProt P27338); assay: Activity evaluation on recombinant human MAO-B (Amplex Red/HRP-coupled assay, 1 mM benzylamine substrate); conditions: read-out: Inhibitory Activity (IC50, nM) MAO-B
T3 construct: purchased Sigma-Aldrich
T3 sequence (P27338 1-520): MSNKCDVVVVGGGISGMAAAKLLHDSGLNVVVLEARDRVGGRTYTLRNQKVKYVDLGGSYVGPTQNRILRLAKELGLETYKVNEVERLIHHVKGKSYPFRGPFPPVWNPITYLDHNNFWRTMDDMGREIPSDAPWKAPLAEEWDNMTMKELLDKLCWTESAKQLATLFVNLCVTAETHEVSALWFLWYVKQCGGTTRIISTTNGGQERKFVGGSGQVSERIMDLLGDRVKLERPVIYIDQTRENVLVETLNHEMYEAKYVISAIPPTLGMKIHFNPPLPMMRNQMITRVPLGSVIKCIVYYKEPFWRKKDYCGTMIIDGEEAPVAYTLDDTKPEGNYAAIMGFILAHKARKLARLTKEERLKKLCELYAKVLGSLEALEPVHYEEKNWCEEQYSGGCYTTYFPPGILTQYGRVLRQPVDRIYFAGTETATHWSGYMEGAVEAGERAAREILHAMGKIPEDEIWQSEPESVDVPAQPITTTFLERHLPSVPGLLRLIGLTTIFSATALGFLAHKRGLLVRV
How it was run: as §1

[4] = biological target: T4, recombinant human DAO (diamine oxidase) (Homo sapiens, UniProt P19801); assay: Activity evaluation on recombinant human DAO (Amplex Red/HRP-coupled assay, 1 mM putrescine substrate); conditions: read-out: Inhibitory Activity (IC50, nM) DAO
T4 construct: purchased R&D systems
T4 sequence (P19801 20-751): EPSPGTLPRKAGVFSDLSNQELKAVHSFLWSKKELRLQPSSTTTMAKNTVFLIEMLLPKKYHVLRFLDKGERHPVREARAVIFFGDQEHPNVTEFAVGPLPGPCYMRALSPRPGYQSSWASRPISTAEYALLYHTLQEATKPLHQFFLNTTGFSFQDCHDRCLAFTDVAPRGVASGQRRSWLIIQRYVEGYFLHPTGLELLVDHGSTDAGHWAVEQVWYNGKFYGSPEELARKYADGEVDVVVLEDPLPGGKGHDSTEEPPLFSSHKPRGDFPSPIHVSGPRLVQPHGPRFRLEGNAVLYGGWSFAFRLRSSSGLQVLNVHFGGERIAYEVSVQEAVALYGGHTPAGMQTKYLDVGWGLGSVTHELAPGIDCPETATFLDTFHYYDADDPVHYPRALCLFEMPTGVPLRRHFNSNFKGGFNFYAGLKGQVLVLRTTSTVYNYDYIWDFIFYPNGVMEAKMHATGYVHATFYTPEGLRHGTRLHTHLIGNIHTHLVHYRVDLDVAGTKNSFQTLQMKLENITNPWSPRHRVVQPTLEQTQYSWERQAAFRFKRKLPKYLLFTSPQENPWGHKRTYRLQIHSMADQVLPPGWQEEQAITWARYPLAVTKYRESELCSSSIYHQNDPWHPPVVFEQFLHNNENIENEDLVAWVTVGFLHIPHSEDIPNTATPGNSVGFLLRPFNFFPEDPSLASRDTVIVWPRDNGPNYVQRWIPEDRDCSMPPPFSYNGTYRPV
How it was run: as §1

[5] = recombinant human VAP-1, 30 min preincubation at 37° C., 1 mM benzylamine
[6] = recombinant human VAP-1, benzylamine substrate

SMILES | IC50 [1, 5] [nM] | IC50 ([2]; 0.5 mM tyramine) [nM] | IC50 ([3]; 1 mM benzylamine) [nM] | IC50 ([4]; 1 mM putrescine) [nM] | IC50 [1, 6] [nM] | IC50 ([2]; 0.5 mM tyramine substrate) [nM] | IC50 ([3]; 1 mM benzylamine substrate) [nM] | IC50 ([4]; 1 mM putrescine substrate) [nM]
CCn1cc(-c2ccc(Cn3cnn(CC(CN)=C(F)F)c3=O)s2)ccc1=O [Example 122, 5-[5-[[1-[2-(aminomethyl)-3,3-difluoro-allyl]-5-oxo-1,2,4-triazol-4-yl]methyl]-2-thienyl]-1-ethyl-pyridin-2-one Trifluoroacetate] | 0.4 | > 100000 | 25000 | 54000 | – | – | – | –
NCC(Cn1ncn(-c2ccc(F)c(F)c2)c1=O)=C(F)F [Example 3, 2-[2-(aminomethyl)-3,3-difluoro-allyl]-4-(3,4-difluorophenyl)-1,2,4-triazol-3-one Trifluoroacetate] | 4 | > 100000 | 25000 | 19000 | – | – | – | –
NCC(Cn1ncn(-c2ccc(-c3ccc(N4CCNCC4)cc3)c(F)c2)c1=O)=C(F)F [Example 25, 2-[2-(aminomethyl)-3,3-difluoro-allyl]-4-[3-fluoro-4-(4-piperazin-1-ylphenyl)phenyl]-1,2,4-triazol-3-one Ditrifluoroacetate] | 1.7 | 6280 | > 10000 | 1300 | – | – | – | –
Cc1cc(-c2ccc3ocnc3c2)cnc1-n1cnn(CC(CN)=C(F)F)c1=O [Example 229, 2-[2-(aminomethyl)-3,3-difluoro-allyl]-4-[5-(1,3-benzoxazol-5-yl)-3-methyl-2-pyridyl]-1,2,4-triazol-3-one Trifluoroacetate] | – | – | – | – | 0.6 | > 10000 | 4100 | 97000
NCC(Cn1ncn(Cc2cc(-c3cccc(-c4nc[nH]n4)c3)cs2)c1=O)=C(F)F [Example 196, 2-[2-(aminomethyl)-3,3-difluoro-allyl]-4-[[4-[3-(1H-1,2,4-triazol-3-yl)phenyl]-2-thienyl]methyl]-1,2,4-triazol-3-one Trifluoroacetate] | – | – | – | – | 1.4 | > 100000 | 2900 | 1900
NCC(Cn1ncn(-c2ccnc(-c3ccc(N4CCNCC4)cc3)c2)c1=O)=C(F)F [Example 62, 2-[2-(aminomethyl)-3,3-difluoro-allyl]-4-[2-(4-piperazin-1-ylphenyl)-4-pyridyl]-1,2,4-triazol-3-one Ditrifluoroacetate] | 1.5 | > 100000 | > 100000 | 160 | – | – | – | –
Cc1cc(-c2ccc(Cn3cnn(CC(CN)=C(F)F)c3=O)s2)cc2c1NC(=O)CC2 [Example 134, 6-[5-[[1-[2-(aminomethyl)-3,3-difluoro-allyl]-5-oxo-1,2,4-triazol-4-yl]methyl]-2-thienyl]-8-methyl-3,4-dihydro-1H-quinolin-2-one Trifluoroacetate] | 0.3 | > 100000 | 22000 | > 100000 | – | – | – | –
NCC(Cn1ncn(-c2cccc(-c3ccc(N4CCNCC4)nc3)n2)c1=O)=C(F)F [Example 213, 2-[2-(aminomethyl)-3,3-difluoro-allyl]-4-[6-(6-piperazin-1-yl-3-pyridyl)-2-pyridyl]-1,2,4-triazol-3-one Ditrifluoroacetate] | – | – | – | – | 2.5 | > 100000 | > 100000 | 1300
Cc1cc(-c2ccc3sc(N)nc3c2)cnc1-n1cnn(CC(CN)=C(F)F)c1=O [Example 226, 4-[5-(2-amino-1,3-benzothiazol-5-yl)-3-methyl-2-pyridyl]-2-[2-(aminomethyl)-3,3-difluoro-allyl]-1,2,4-triazol-3-one Trifluoroacetate] | – | – | – | – | 0.5 | > 100000 | 11000 | > 100000
CN1C(=O)CCc2cc(-c3csc(Cn4cnn(CC(CN)=C(F)F)c4=O)c3)ccc21 [Example 152, 6-[5-[[1-[2-(aminomethyl)-3,3-difluoro-allyl]-5-oxo-1,2,4-triazol-4-yl]methyl]-3-thienyl]-1-methyl-3,4-dihydroquinolin-2-one Trifluoroacetate] | 0.2 | > 100000 | 13400 | 3500 | – | – | – | –
NCC(Cn1ncn(Cc2ccc(-c3cnn(CC4CC4)c3)s2)c1=O)=C(F)F [Example 295, 2-[2-(aminomethyl)-3,3-difluoro-allyl]-4-[[5-[1-(cyclopropylmethyl)pyrazol-4-yl]-2-thienyl]methyl]-1,2,4-triazol-3-one Trifluoroacetate] | – | – | – | – | 0.3 | > 100000 | > 100000 | > 100000
NCC(Cn1ncn(CCc2ccc(-c3ccc(C(F)(F)F)nc3)s2)c1=O)=C(F)F [Example 175, 2-[2-(aminomethyl)-3,3-difluoro-allyl]-4-[2-[5-[6-(trifluoromethyl)-3-pyridyl]-2-thienyl]ethyl]-1,2,4-triazol-3-one Trifluoroacetate] | 0.4 | > 100000 | 14000 | 250 | – | – | – | –
CN(C)c1ccc(-c2cnc(-n3cnn(CC(CN)=C(F)F)c3=O)cn2)cn1 [Example 92, 2-[2-(aminomethyl)-3,3-difluoro-allyl]-4-[5-[6-(dimethylamino)-3-pyridyl]pyrazin-2-yl]-1,2,4-triazol-3-one Trifluoroacetate] | 0.2 | > 100000 | 6200 | 8 | – | – | – | –
